Source: PMC9032233, “2-{5-[(Z,2Z)-2-Chloro-3-(4-nitrophenyl)-2-propenylidene]-4-oxo-2-thioxothiazolidin-3-yl}-3-methylbutanoic Acid as a Potential Anti-Breast Cancer Molecule” (International Journal of Molecular Sciences, 2022)

What was measured:
topoisomerase IIα = experiment: Flow cytometric analysis of anti-topoisomerase IIα antibody, MDA-MB-231; type: cell-based, human; details: 24 h
Method: To confirm the ELISA results, flow cytometric analysis of Top II activity using an anti-topoisomerase IIα antibody conjugated with phycoerythrin (PE) was performed. The Les-3331 and etoposide were used at 1 µM and 5 µM concentrations. Cancer cells were incubated for 24 h with tested compounds and the assay was carried out in accordance with the manufacturer’s protocol. Briefly, cells were centrifuged and resuspended in 4% formaldehyde. Then, cells were incubated at RT for 15 min and subsequently washed with excess PBS and centrifuged. Thereafter, ice-cold 90% methanol was added to the cells and they were incubated for 1 h in an ice bath. Next, cells were washed with excess PBS and centrifuged again. In the meantime, the primary antibody was diluted (1:100) in PBS. Then, cells were resuspended in the prepared primary antibody (100 µL) and incubated at RT, protected from light, for 1 h. Finally, cells were washed and resuspended in PBS (300 µL). The prepared samples were measured immediately. Analysis of the obtained results was performed using a flow cytometer (BD FACSCanto II, Becton Dickinson Biosciences Systems, San Jose, CA, USA) and FACSDiva software (v6.1.3, BD Biosciences Systems, San Jose, CA, USA). The equipment was calibrated with BD Cytometer Setup and Tracking Beads (BD Biosciences, San Diego, CA, USA).

caspase-8 [1] = experiment: Caspase-8 concentration in MDA-MB-231 cell lysates (ELISA); type: cell-based, human; details: 24 h, control 0.828 ng/mL
Method: (§1) High sensitivity assay kits (EIAab Science Co., Ltd., Wuhan, China; Abcam plc., Cambridge, United Kingdom; Cloud-Clone Corp., Katy, TX, USA) were used to determine the concentrations of selected proteins in cell lysates after 24 h incubation with novel compound and reference drug in 1 µM and 5 µM concentrations. In brief, after trypsinization, cells were washed thrice with cold PBS and centrifuged at 1000× g for 5 min at 4 °C. Then, cells (1.5 × 10^6) were suspended in lysis buffer for whole-cell lysates. After the second centrifugation, cellular supernatants were frozen immediately at −70 °C. Untreated cancer cells were taken as a control.
(§2) The microtiter plates provided in the kits were pre-coated with an antibody specific to the analyzed antigen. The tests were carried out according to the manufacturer’s protocols.

[2] = test system: MDA-MB-231 human breast cancer cells; experiment: MTT cell viability assay, MDA-MB-231; type: cell-based; details: MDA-MB-231, MTT, 24 h incubation
Method: (§3) Cell culture MCF-7, MDA-MB-231 human breast cancer cells, and fibroblasts skin cells were purchased from the ATCC—American Type Culture Collection. All cell lines were maintained in DMEM (Corning, Kennebunk, ME, USA). The medium was supplemented with 10% fetal bovine serum—FBS (Eurx, Gdansk, Poland) and 1% antimicrobial substances: penicillin–streptomycin (Corning, Kennebunk, ME, USA). The incubator asserted appropriate growth conditions required for these cell lines: 5% of CO2, at 37 °C, with the humidity between 90–95%. Cells were seeded in 100 mm round dishes. An amount of 0.05% trypsin containing 0.02% EDTA (Corning, Kennebunk, ME, USA) and phosphate-buffered saline (PBS) without calcium and magnesium (Corning, Kennebunk, ME, USA) was used to detach cells from a plate once 80–90% cell confluence was achieved. In the next step, cells were reseeded in six-well plates (density—5 × 10^5 of cells per well) in 1 mL of DMEM after a 24 h incubation used in the presented tests.
(§4) To examine the effect of Les-3331 on cell viability, the MTT assay was performed. […] The absorbance was measured using Spectrophotometer UV-VIS Helios Gamma (Unicam/ThermoFisher Scientific Inc., Waltham, MA, USA) at a wavelength of 570 nm. The obtained absorbance in untreated control cells was taken as 100%, while the survival of the cells incubated with tested compounds presented as a percentage of the control value.

caspase-8 [3] = experiment: Caspase-8 concentration in MCF-7 cell lysates (ELISA); type: cell-based, human; details: 24 h, control 0.901 ng/mL
Method: as §1, §2

caspase-9 = experiment: Caspase-9 concentration in MCF-7 cell lysates (ELISA); type: cell-based, human; details: 24 h, control 120.913 ng/mL
Method: as §1, §2

topoisomerase II = experiment: Topoisomerase II concentration in MDA-MB-231 cell lysates (ELISA); type: cell-based, human; details: 24 h, control 2.700 ng/mL
Method: as §1, §2

[4] = Parallel artificial membrane permeability assay (PAMPA); type: in vitro ADME; details: 200 µM in PBS pH 7.4, 5 h at RT, read-out: permeability coefficient Pe
Method: All in vitro assays used for the evaluation of Les-3331 ADME-Tox parameters were described previously. In brief, for the determination of permeability, Pre-coated PAMPA Plate System Gentest^TM was purchased from Corning (Tewksbury, MA, USA). […] PAMPA plates with compounds added to the donor wells were incubated for 5 h at RT. UPLC-MS Waters ACQUITY—TQD system with the TQ Detector (Waters, Milford, MI, USA) was used next for determination of compounds concentrations in donor and acceptor wells, which were required for calculation of permeability coefficient Pe according to formulas provided by the manufacturer.

CYP2D6 = biological target: T1, CYP2D6 (Homo sapiens, UniProt P10635); experiment: Luminescent CYP2D6 P450-Glo assay; type: in vitro ADME; details: at the highest dose 25 µM
T1 construct: purchased Promega (Madison, WI, USA)
Method: (§5) For investigation of potential drug-drug interactions, the luminescent CYP3A4 and CYP2D6 P450-Glo assays obtained from Promega® (Madison, WI, USA) were used. Les-3331 was tested in triplicate at the final concentrations from 0.01 to 25 µM according to the protocols provided by Promega®. The reference inhibitors were tested at 1 µM. The luminescent signal was measured using a microplate reader, EnSpire PerkinElmer (Waltham, MA, USA).

CYP3A4 = biological target: T2, CYP3A4 (Homo sapiens, UniProt P08684); experiment: Luminescent CYP3A4 P450-Glo assay; type: in vitro ADME; details: at 10 and 25 µM
T2 construct: purchased Promega (Madison, WI, USA)
Method: as §5

human skin fibroblasts = experiment: MTT cell viability assay, skin fibroblasts; type: cell-based; details: Skin fibroblast, 24 h incubation
Method: as §3, §4

T1 sequence (P10635 whole entry): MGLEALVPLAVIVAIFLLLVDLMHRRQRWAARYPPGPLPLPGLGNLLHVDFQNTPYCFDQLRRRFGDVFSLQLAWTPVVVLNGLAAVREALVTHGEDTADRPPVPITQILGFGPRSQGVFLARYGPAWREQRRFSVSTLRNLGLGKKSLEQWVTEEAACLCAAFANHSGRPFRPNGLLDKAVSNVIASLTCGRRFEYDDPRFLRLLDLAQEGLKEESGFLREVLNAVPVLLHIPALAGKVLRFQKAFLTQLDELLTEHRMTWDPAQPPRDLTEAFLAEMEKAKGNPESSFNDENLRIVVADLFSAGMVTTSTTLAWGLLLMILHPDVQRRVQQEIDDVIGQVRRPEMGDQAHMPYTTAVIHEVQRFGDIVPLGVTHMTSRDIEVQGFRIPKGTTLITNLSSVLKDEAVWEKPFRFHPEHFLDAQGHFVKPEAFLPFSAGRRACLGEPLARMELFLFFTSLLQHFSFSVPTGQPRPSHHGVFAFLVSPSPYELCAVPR
T2 sequence (P08684 whole entry): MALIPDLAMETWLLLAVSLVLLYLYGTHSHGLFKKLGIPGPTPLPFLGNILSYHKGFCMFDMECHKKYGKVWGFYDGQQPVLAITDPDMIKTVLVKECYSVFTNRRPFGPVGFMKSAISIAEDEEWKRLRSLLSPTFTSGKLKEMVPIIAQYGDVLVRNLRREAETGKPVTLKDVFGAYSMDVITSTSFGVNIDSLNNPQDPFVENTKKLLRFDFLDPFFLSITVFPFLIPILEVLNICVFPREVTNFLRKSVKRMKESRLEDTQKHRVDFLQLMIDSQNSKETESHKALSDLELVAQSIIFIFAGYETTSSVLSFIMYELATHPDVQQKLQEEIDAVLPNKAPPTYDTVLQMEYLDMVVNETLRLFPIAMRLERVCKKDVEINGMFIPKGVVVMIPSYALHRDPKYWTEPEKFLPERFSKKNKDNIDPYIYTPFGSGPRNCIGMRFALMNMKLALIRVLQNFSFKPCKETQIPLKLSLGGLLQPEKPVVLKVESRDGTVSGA

SMILES	% of cells without anti-topoisomerase IIα antibody (topoisomerase IIα; MDA-MB-231, 1 µM)	% of cells without anti-topoisomerase IIα antibody (topoisomerase IIα; MDA-MB-231, 5 µM)	Casp-8 concentration (caspase-8 [1]; MDA-MB-231, 1 µM)	Casp-8 concentration (caspase-8 [1]; MDA-MB-231, 5 µM)	IC50 [2]	Casp-8 concentration (caspase-8 [3]; 1 µM)	Casp-8 concentration (caspase-8 [3]; 5 µM)	Casp-9 concentration (caspase-9; 1 µM)	Casp-9 concentration (caspase-9; 5 µM)	Top II concentration (topoisomerase II; MDA-MB-231, 1 µM)	Top II concentration (topoisomerase II; MDA-MB-231, 5 µM)	Papp at 5 h, 200 µM [4]	effect on CYP2D6 activity (CYP2D6)	effect on CYP3A4 activity (CYP3A4)	IC50 (human skin fibroblasts)
COc1cc([C@@H]2c3cc4c(cc3[C@@H](O[C@@H]3O[C@@H]5CO[C@@H](C)O[C@H]5[C@H](O)[C@H]3O)[C@H]3COC(=O)[C@H]23)OCO4)cc(OC)c1O [Etoposide, reference compound]	7.5%	9.1%	0.836 ng/mL	0.857 ng/mL	> 50 µM	0.812 ng/mL	0.951 ng/mL	154.960 ng/mL	158.900 ng/mL	2.175 ng/mL	2.003 ng/mL	–	–	–	–
CC(C)C(C(=O)O)N1C(=O)/C(=C/C(Cl)=C/c2ccc([N+](=O)[O-])cc2)SC1=S (centres unmarked) [Les-3331, 2-{5-[(Z,2Z)-2-chloro-3-(4-nitrophenyl)-2-propenylidene]-4-oxo-2-thioxothiazolidin-3-yl}-3-methylbutanoic acid]	5.4%	30.9%	1.012 ng/mL	1.067 ng/mL	15.2 µM	1.050 ng/mL	1.253 ng/mL	150.187 ng/mL	168.243 ng/mL	2.508 ng/mL	1.436 ng/mL	0.96 ×10⁻⁶ cm/s	slight inhibition	activated	28.5 µM
